Assay [1] deals with bacteriophages from swabs of hands, masks and work surfaces. As to the kind of experiment: Bacterial DNA in blood (16S RT-PCR) after water with phages from treated objects and surfaces (Example 5). It is filed as in vivo. As to conditions: average of 3 experiments. Here is the method:
Fourteen days after including any product enriched with bacteriophage mixture into the mice diet, the mice blood was aseptically taken and bacterial DNA content in the bloodstream was evaluated. Increased DNA content in blood indicates an increase of intestinal permeability reflecting increased translocation of microorganisms from the gastro-intestinal tract into the systemic circulation. (See Deitch E. A., et al. Effect of hemorrhagic shock on bacterial translocation, intestinal morphology, and intestinal permeability in conventional and antibiotic-decontaminated rats. Critical care medicine 18.5 (1990), 529-536). DNA was isolated with a kit for the isolation of nucleic acids DNAQamp Qiagen. Quantitative determination of DNA was carried out by RT-PCR using universal bacterial primers for 16S rRNA (upb2 with a universal FAM-probe for bacteria: (5FAM) aat acg ttc ccg ggt ctt gta cac acc gcc cgt cac act att (3′RTQ1) (SEQ ID NO: 6) and DG74 5′aac tgg agg aag gtg ggg at 3′ (SEQ ID NO: 7)) on Bio-Rad CFX96 amplifier. Reaction conditions: 95° C.—5 min. 45 cycles 95° C.—15 sec, 60° C.—30 sec, fluorescence reading.
Bacteriophages were obtained from the swabs from hands and masks of medical staff and work surfaces in surgical clinics. The hands, masks and surfaces were subjected to various kinds of treatments in order to reduce the amount of phages on them. After the treatment, phages were isolated by the Gratia's method (Kropinski et al. “Enumeration of bacteriophages by double agar overlay plaque assay.” Bacteriophages: Methods and Protocols, Volume 1: Isolation, Characterization, and Interactions, Humana Press, 2009, vol. 501, 69-76). Test material (swabs) was filtered through 0.45 μm Millipore membrane filters. The resulting filtrate was incubated at 60° C. for 60 minutes to inactivate bacteria and was added to 100 μL of water. The resulting solutions were given to animals with water, and the development of an increased intestinal permeability was evaluated as described in Example 4, above. The animals were divided into the following treatment groups:
Group “PHG”: water with the addition of bacteriophages obtained from objects and surfaces treated with a 0.1% (1000 mg/L) polyhexamethylene guanidine derivative preparation. The polyhexamethylene guanidine preparation used in this treatment was prepared by condensation polymerization of hexamethylenediamine with guanidine salt and hydrazine hydrate, as described in U.S. Provisional Pat. Appl. No. 62/510,446, U.S. Pat. No. 8,993,712, U.S. Pat. Appl. Pub. No. 2017/0013838 and Int. Pat. Appl. Pub. No. WO2016/118043.
Group “Photocatalyst”: water with the addition of bacteriophages obtained from objects and surfaces treated with TiO2 and activated by ultraviolet radiation. […]

The test system of another assay is hairless mice. Kind of assay: General skin elasticity after 36 weeks of water application (Example 7). It is filed as in vivo. The settings on record: vs untreated left part of the back. As for the experimental part: In the experiment, hairless mice, 5 males and 5 females, (C57BL/6 albino/hairless, The Jackson Laboratories) of both sexes were used. Starting from 4 weeks of age, animals were daily treated with tap water or mineral water from artesian source, the water applied on the right half of the back. After 36 weeks, skin condition parameters were evaluated (SoftPlusCPU (Callegaris.p.a.)) in the application area, compared with the untreated left part of the back. Animals were divided into the following treatment groups:
Group “Filtration”: water filtered through 0.22 μm Millipore membrane filters.
Group “Electron”: water treated with an electron flow.
Group “Prototype”: water treated with potassium nitrate.

In assay [2] the test system is bacteriophages isolated from waste water. Kind of assay: Bacterial DNA in blood (16S RT-PCR) after diet with phage-enriched, treated products (Example 4). It is filed as in vivo, Wistar rats. The settings on record: blood after 14 days, average of 3 experiments. Here is the method:
As a source for the isolation of bacteriophages, waste water from canalization was used. The phages were isolated by Gratia's method (Kropinski et al. “Enumeration of bacteriophages by double agar overlay plaque assay.” Bacteriophages: Methods and Protocols, Volume 1: Isolation, Characterization, and Interactions, Humana Press, 2009, vol. 501, 69-76). Test material (waste water) was filtered through 0.45 μm Millipore membrane filters. The resulting filtrate was incubated at 60° C. for 60 minutes to inactivate bacteria and was added to water or products (e.g., milk, yogurt, curd, cheese, minced meat, minced chicken, fish, fruit mix, vegetable mixture) in 100 μL volume. The resulting food products enriched with phages were included in the mice diet. […]
Fourteen days after including any product enriched with bacteriophage mixture into the mice diet, the mice blood was aseptically taken and bacterial DNA content in the bloodstream was evaluated. […] Quantitative determination of DNA was carried out by RT-PCR using universal bacterial primers for 16S rRNA (upb2 with a universal FAM-probe for bacteria: (5FAM) aat acg ttc ccg ggt ctt gta cac acc gcc cgt cac act att (3′RTQ1) (SEQ ID NO: 6) and DG74 5′aac tgg agg aag gtg ggg at 3′ (SEQ ID NO: 7)) on Bio-Rad CFX96 amplifier. […] 45 cycles 95° C.—15 sec, 60° C.—30 sec, fluorescence reading.

Assay [3] relates to bacteriophages isolated from the feces of obese mice. As to the kind of experiment: Body weight after 21 weeks of drinking water with phages from obese mice (Example 6). It is filed as in vivo. As to conditions: treated drinking water with phages from obese mice; standard diet. Here is the method: To assess a possibility of preventing changes in the GI microbiota leading to obesity by limiting bacteriophage entry from the environment, bacteriophages were isolated from the feces of Group #1 mice in which obesity was modeled. The obtained phages were added to drinking water of mice (age 12 weeks) from Group #2 for 21 weeks. The diet of the animals remained standard, i.e., not a high fat diet. The mice in Group #2 were divided into the following treatment groups:
Group “Filtration”: water with the addition of bacteriophages, filtered through 0.45 μm Millipore membrane filters.
Group “Pascalization”: water with the addition of bacteriophages, treated with high pressure (340 MPa).
Group “Prototype”: water with the addition of bacteriophages, treated with potassium nitrate.

`O=[O+][O-]` [Ozone, ozone]: in assay [1], the “Number of cycles during which bacterial DNA appears (Cq)” value (from here on “Number”) is 27.74 cycles.
With `O=[N+]([O-])[O-].[K+]` [Prototype, potassium nitrate], the “Change in parameter of general skin elasticity” value in the assay on hairless mice (Tap water) is reported as −42.9%; in the assay on hairless mice (Well water) it was −41.4%. Moreover, the “Number” value in assay [2] (phages added to cheese) is 19.79 cycles; in assay [2] (phages added to water) it was 17.28 cycles; in assay [1], 17.92 cycles. In assay [3], this compound returned an Animal body weight after 21 weeks of 46 g.
For `OO` [Peroxide, H2O2], in assay [1], the “Number” value came out at 31.65 cycles.
Turning to `[Cu+2]` [Metals, Cu^2+], the “Number” value in assay [1] worked out at 29.51 cycles.

The values above are taken from patent US20260091068A1, “METHODS FOR TREATING AND PREVENTING DISEASES” (priority 2017, published 2026).
